ChEMBL document CHEMBL1154703, “Poly-N-methylated amyloid beta-peptide (Abeta) C-terminal fragments reduce Abeta toxicity in vitro and in Drosophila melanogaster” (J Med Chem, 2009)
The source made the active and inactive calls. The rule behind the calls is not given here. Non-standard residues stand in square brackets, D forms with d. Residues, ends and D or L forms follow the SMILES beside them. Met(O2) = CS(=O)(=O)CC[C@H](N)C(=O)O; NMeI = CC[C@H](C)[C@H](NC)C(=O)O; NMeL = CN[C@@H](CC(C)C)C(=O)O; NMeV = CN[C@H](C(=O)O)C(C)C; Sar = CNCC(=O)O

Key:
[1] = Inhibition of fibril formation of Abeta (1-40) assessed as fibril levels at 1:5 molar ratio of Abeta and ligand after 72 hrs by transmission electron microscopy relative to untreated control; parameters: scale not given: the % may be the effect or the level left
[2] = Reduction of beta-sheet formation of Abeta (1-40) at 100 uM during 5 hrs incubation by CD spectroscopy
[3] = Reduction of beta-sheet formation of Abeta (1-42) at 100 uM during 4 hrs incubation by CD spectroscopy
[4] = Reduction of beta-sheet formation of Abeta (1-40) at 1:1 molar ratio of Abeta and ligand during 4 hrs incubation by CD spectroscopy
[5] = Effect on of Abeta (1-40) assessed as structure content at 5 hrs by CD spectroscopy
[6] = Effect on of Abeta (1-40) assessed as unordered structure content after 5 hrs by CD spectroscopy
[7] = Effect on of Abeta (1-42) assessed as unordered structure content after 5 hrs by CD spectroscopy
[8] = Inhibition of Abeta (1-40) assessed as blockade of amyloid-like aggregates at 100 uM by Congo red binding assay
[9] = Inhibition of Abeta (1-42) assessed as blockade of amyloid-like aggregates at 100 uM by Congo red binding assay
[10] = Inhibition of fibril formation of Abeta (1-40) assessed as fibril levels at 1:10 molar ratio of Abeta and ligand after 72 hrs by transmission electron microscopy relative to untreated control; parameters: scale not given: the % may be the effect or the level left
[11] = Inhibition of fibril formation of Abeta (1-40) assessed as change in fibril morphology at 100 uM by atomic force microscopy relative to untreated control
[12] = Inhibition of fibril formation of Abeta (1-40) assessed as change in fibril levels at 100 uM by atomic force microscopy relative to untreated control
PC-12 = assay: Cytoprotection against Abeta (1-42)-induced toxicity in rat PC12 cells at 10 uM after 4 hrs by MTT assay; format: functional, cell-based
Drosophila melanogaster [13] = assay: Prolongation of life span in transgenic Drosophila melanogaster expressing human Abeta (1-42) at 300 uM dosed from embryonic stage and throughout adult life; format: functional, organism-based
Drosophila melanogaster [14] = assay: Effect on life span in wild type Drosophila melanogaster at 300 uM dosed from embryonic stage and throughout adult life; format: functional, organism-based
Drosophila melanogaster [15] = assay: Improvement in locomotor activity in transgenic Drosophila melanogaster expressing human Abeta (1-42) at 300 uM dosed from embryonic stage and throughout adult life by climbing assay; format: functional, organism-based
[16] = Inhibition of fibril formation of Abeta (1-40) assessed as fibril levels at 1:1 molar ratio of Abeta and ligand after 72 hrs by transmission electron microscopy relative to untreated control; parameters: scale not given: the % may be the effect or the level left
[17] = Reduction of beta-sheet formation of Abeta (1-42) at 100 uM during 3 hrs incubation by CD spectroscopy
[18] = Reduction of beta-sheet formation of Abeta (1-40) at 100 uM during 4 to 5 hrs incubation by CD spectroscopy
[19] = Reduction of beta-sheet formation of Abeta (1-40) at 1:1 molar ratio of Abeta and ligand during 5 hrs incubation by CD spectroscopy

CC(=O)N(C)[C@@H](C)C(=O)N(C)[C@@H](C)C(=O)N(C)[C@@H](C)C(=O)N(C)[C@@H](C)C(=O)N(C)[C@@H](C)C(N)=O
Activity [1]: 75%

CC[C@H](C)[C@@H](C(=O)N(C)CC(=O)N(C)[C@@H](CC(C)C)C(=O)N[C@@H](CCSC)C(=O)N(C)[C@H](C(=O)N(C)CC(N)=O)C(C)C)N(C)C(C)=O (Ac-[NMeI][Sar][NMeL]M[NMeV][Sar]-NH2)
Activity [2]: Active
Activity [3]: Active
Activity [4]: Active
Activity [5]: 25%
Activity [6]: 55%
Activity [7]: > 50%
Activity [8]: Active
Activity [9]: Active
Activity [10]: 0%
Activity [1]: 0%
Activity [11]: Active
Activity [12]: Active
Activity (PC-12): Active
Activity (Drosophila melanogaster [13]): Active
Activity (Drosophila melanogaster [14]): inactive
Activity (Drosophila melanogaster [15]): Active
Activity [16]: 50%

CC[C@H](C)[C@H](NC(C)=O)C(=O)N(C)CC(=O)N[C@@H](CC(C)C)C(=O)N[C@@H](CCSC)C(=O)N[C@H](C(=O)N(C)CC(N)=O)C(C)C (Ac-I[Sar]LMV[Sar]-NH2)
Activity [17]: Active
Activity [18]: Active
Activity [8]: inactive
Activity [9]: inactive
Activity [10]: 75%
Activity (PC-12): Active

CC[C@H](C)[C@@H](C(=O)N(C)CC(=O)N(C)[C@@H](CC(C)C)C(=O)N[C@@H](CCS(C)(=O)=O)C(=O)N(C)[C@H](C(=O)N(C)CC(N)=O)C(C)C)N(C)C(C)=O (Ac-[NMeI][Sar][NMeL][Met(O2)][NMeV][Sar]-NH2)
Activity [1]: 50%

CC[C@H](C)[C@@H](C(=O)NCC(=O)N(C)[C@@H](CC(C)C)C(=O)N[C@@H](CCSC)C(=O)N(C)[C@H](C(=O)NCC(N)=O)C(C)C)N(C)C(C)=O (Ac-[NMeI]G[NMeL]M[NMeV]G-NH2)
Activity [17]: Active
Activity [18]: Active
Activity [19]: inactive
Activity [5]: 25%
Activity [8]: inactive
Activity [9]: inactive
Activity [10]: 50%
Activity (PC-12): Active

CC[C@H](C)[C@H](NC(C)=O)C(=O)NCC(=O)N[C@@H](CC(C)C)C(=O)N[C@@H](CCSC)C(=O)N[C@H](C(=O)NCC(N)=O)C(C)C (Ac-IGLMVG-NH2)
Activity [17]: Active
Activity [18]: Active
Activity [5]: 25%
Activity [8]: inactive
Activity [9]: inactive
Activity [10]: 75%
Activity (PC-12): inactive
